Measurements published in article PMC7133791 (ChemMedChem, 2020).

Tests used:
[1] = biological target: M. tuberculosis topoI (MttopoI) (Mycobacterium tuberculosis, UniProt P9WG49); assay: DNA relaxation inhibition assay; format: biochemical; conditions: assay conditions for MttopoI not stated; data not shown
[2] = biological target: T1, Escherichia coli topoisomerase I (EctopoI) (Escherichia coli, UniProt P06612); assay: SPR; format: binding; conditions: PBS-P, pH 7.4, 1% DMSO; no DNA; average of three experimental replicates
T1 sequence (P06612 1-865): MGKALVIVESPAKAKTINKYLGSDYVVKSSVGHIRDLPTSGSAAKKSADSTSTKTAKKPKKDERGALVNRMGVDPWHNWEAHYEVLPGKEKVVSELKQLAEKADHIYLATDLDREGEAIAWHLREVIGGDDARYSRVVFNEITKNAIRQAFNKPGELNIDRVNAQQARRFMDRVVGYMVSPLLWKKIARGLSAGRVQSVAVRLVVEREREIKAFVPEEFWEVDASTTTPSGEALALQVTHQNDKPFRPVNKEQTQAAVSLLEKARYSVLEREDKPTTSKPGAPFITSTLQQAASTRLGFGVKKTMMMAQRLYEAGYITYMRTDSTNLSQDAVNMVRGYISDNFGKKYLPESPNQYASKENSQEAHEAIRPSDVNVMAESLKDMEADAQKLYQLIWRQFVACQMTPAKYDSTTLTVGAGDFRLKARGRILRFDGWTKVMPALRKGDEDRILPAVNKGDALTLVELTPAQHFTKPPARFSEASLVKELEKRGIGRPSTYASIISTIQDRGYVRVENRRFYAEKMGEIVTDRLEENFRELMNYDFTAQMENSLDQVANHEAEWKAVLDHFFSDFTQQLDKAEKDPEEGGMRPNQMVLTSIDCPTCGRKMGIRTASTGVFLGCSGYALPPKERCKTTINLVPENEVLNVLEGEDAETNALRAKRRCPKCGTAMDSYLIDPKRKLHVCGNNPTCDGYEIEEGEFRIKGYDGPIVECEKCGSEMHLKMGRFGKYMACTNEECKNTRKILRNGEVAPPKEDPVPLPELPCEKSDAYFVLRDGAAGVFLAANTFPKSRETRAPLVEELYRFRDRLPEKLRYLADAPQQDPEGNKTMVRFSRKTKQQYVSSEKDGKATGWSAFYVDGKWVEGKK

M. tuberculosis topoI (MttopoI), sequence (P9WG49 whole entry): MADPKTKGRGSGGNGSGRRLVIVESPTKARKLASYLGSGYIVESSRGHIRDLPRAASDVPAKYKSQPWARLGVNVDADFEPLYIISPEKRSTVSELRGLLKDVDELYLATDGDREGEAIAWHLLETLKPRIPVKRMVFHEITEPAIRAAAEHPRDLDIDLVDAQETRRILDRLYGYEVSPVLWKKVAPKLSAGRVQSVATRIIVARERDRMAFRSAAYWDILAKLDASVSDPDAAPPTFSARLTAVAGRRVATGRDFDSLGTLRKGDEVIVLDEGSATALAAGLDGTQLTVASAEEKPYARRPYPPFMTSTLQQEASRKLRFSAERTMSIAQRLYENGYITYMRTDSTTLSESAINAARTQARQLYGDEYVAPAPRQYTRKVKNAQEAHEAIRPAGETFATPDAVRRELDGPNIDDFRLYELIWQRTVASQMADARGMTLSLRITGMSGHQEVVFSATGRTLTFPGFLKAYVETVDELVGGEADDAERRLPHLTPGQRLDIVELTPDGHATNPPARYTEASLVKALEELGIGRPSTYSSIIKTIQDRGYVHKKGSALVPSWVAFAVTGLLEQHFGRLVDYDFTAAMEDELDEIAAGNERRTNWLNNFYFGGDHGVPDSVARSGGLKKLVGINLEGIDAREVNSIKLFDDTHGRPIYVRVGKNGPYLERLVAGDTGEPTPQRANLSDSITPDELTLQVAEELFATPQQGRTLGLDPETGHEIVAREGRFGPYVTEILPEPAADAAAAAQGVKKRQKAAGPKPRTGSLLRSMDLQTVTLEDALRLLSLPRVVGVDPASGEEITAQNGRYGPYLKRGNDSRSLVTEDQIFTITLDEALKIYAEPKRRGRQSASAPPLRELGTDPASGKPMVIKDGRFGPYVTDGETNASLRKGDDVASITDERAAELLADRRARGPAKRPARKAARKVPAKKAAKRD

O=C(Nc1ccc(Sc2ccc(N=Nc3c(O)c(S(=O)(=O)O)cc4cc(S(=O)(=O)O)ccc34)cc2)cc1)c1ccc(N=Nc2c(O)ccc3c(S(=O)(=O)O)cc(S(=O)(=O)O)cc23)cc1 [NSC76027]
IC50 [1]: ~3000 nM
Kd [2]: 79 ± 8 nM
